Data reported in patent US20200197472A1, “COSMETIC COMPOSITIONS” (Mary Kay Inc., priority 2018, published 2020).

Assays:
Format in all cases: cell-based
TNF-α = experiment: Inhibition of TNF-α production by PMA-treated human epidermal keratinocytes (ELISA)
Text: The prototype ligand of the TNF superfamily, TNF-α, is a pleiotropic cytokine that plays a central role in inflammation. Increase in its expression is associated with an up regulation in pro-inflammatory activity. This bioassay was used to analyze the effect of tetradecyl aminobutyroylvalylaminobutyric urea trifluoroacetate, and/or Alteromonas ferment filtrate on the production of TNF-α by human epidermal keratinocytes. The endpoint of this assay was a spectrophotometric measurement that reflects the presence of TNF-α and cellular viability. The assay employed the quantitative sandwich enzyme immunoassay technique whereby a monoclonal antibody specific for TNF-α has been pre-coated onto a microplate. Standards and samples were pipetted into the wells and any TNF-α present was bound by the immobilized antibody. After washing away any unbound substances, an enzyme-linked polyclonal antibody specific for TNF-α was added to the wells. Following a wash to remove any unbound antibody-enzyme reagent, a substrate solution was added to the wells and color develops in proportion to the amount of TNF-α bound in the initial step using a microplate reader for detection at 450 nm. The color development was stopped and the intensity of the color can be measured. […]

hyaluronic acid = experiment: Production of hyaluronic acid in adult human dermal fibroblasts (HDFa), ELISA; conditions: for Hyaluronic Acid Production, Activity compared to control: HDFa cells, 24 hours
Protocol: Changes in the production of hyaluronic acid in human dermal fibroblasts due to each of Centella asiatica meristem cell culture, Alpinia galangal leaf extract, tripeptide-1, and TAUT were measured. Hyaluronic acid (HA) is a polysaccharide involved in stabilization of the structure of the matrix and is involved in providing turgor pressure to tissue and cells. As one non-limiting example, HA production in treated and non-treated adult human dermal fibroblasts (HDFa) cells was determined using the Hyaluronan DuoSet ELISA kit from R&D Systems (DY3614). In this assay, for production of samples, subconfluent HDFa cells from Cascade Biologics (C-13-5C) were incubated at 37° C. and 10% CO2 in starvation medium (0.15% fetal bovine serum and 1% Penicillin Streptomycin solution in Dulbecco's Modified Eagle Medium) for 72 hours prior to treatment. The cells were then incubated with fresh starvation medium with either test compound, positive control (phorbol 12-myristate 13-acetate from Sigma-Aldrich (P1585) and platelet derived growth factor from Sigma-Aldrich (P3201)), or no additive for 24 hours. Media was then collected and frozen at −80° C. until use in the ELISA assay.
Briefly, the ELISA assay employed a quantitative sandwich enzyme immunoassay technique whereby a capture antibody specific for HA can be pre-coated onto a microplate. Standards and media from treated and untreated cells were pipetted into the microplate wells to enable any HA present to be bound by the immobilized antibody. After washing away any unbound substances, an enzyme-linked detection antibody specific for HA was added to the wells. Following a wash to remove any unbound antibody-enzyme reagent, a substrate solution was added to the wells to allow color development in proportion to the amount of HA bound in the initial step. The color development was stopped at a specific time and the intensity of the color at 450 nm was measured using a microplate reader.

procollagen peptide = experiment: Collagen stimulation: procollagen peptide production by human epidermal fibroblasts (ELISA); conditions: for Collagen Production, Activity compared to control: human fibroblasts treated 3 days
Text: Collagen is an extracellular matrix protein critical for skin structure. Increased synthesis of collagen helps improve skin firmness and elasticity. This bioassay was used to examine the effect of Alpinia galangal leaf extract, dihydroxymethyl chromone, tripeptide-1, Alteromonas ferment filtrate, Pisum Sativum (pea) extract, and/or TAUT on the production of procollagen peptide (a precursor to collagen) by human epidermal fibroblasts. The endpoint of this assay was a spectrophotometric measurement that reflects the presence of procollagen peptide and cellular viability. The assay employed the quantitative sandwich enzyme immunoassay technique whereby a monoclonal antibody specific for procollagen peptide had been pre-coated onto a microplate. Standards and samples were pipetted into the wells and any procollagen peptide present was bound by the immobilized antibody. After washing away any unbound substances, an enzyme-linked polyclonal antibody specific for procollagen peptide was added to the wells. Following a wash to remove any unbound antibody-enzyme reagent, a substrate solution was added to the wells and color develops in proportion to the amount of procollagen peptide bound in the initial step using a microplate reader for detection at 450 nm. The color development was stopped and the intensity of the color was measured.
For generation of samples and controls, subconfluent normal human adult epidermal fibroblasts (Cascade Biologics) cultivated in standard DMEM growth medium with 10% fetal bovine serum (Mediatech) at 37° C. in 10% CO2, were treated with each of the ingredients for 3 days. Following incubation, cell culture medium was collected and the amount of procollagen peptide secretion quantified using a sandwich enzyme linked immuno-sorbant assay (ELISA) from Takara (# MK101).

fibronectin = experiment: Fibronectin secretion by cultured human fibroblasts (ELISA); conditions: 3 days, 1.0% final concentration
Text: Laminin and fibronectin are major proteins in the dermal-epidermal junction (DEJ) (also referred to as the basement membrane). The DEJ is located between the dermis and the epidermis interlocks forming fingerlike projections called rete ridges. The cells of the epidermis receive their nutrients from the blood vessels in the dermis. The rete ridges increase the surface area of the epidermis that is exposed to these blood vessels and the needed nutrients. The DEJ provides adhesion of the two tissue compartments and governs the structural integrity of the skin. Laminin and fibronectin are two structural glycoproteins located in the DEJ. […] Laminin and fibronectin secretion was monitored by quantifying laminin and fibronectin in cell supernatants of cultured human fibroblasts treated for 3 days with culture medium with or without 1.0% final concentration of the test ingredient(s). Following incubation, laminin and fibronectin contents were measured using immunofluorescent antibodies directed against each protein in an enzyme linked immuno-sorbant assay (ELISA). Measurements were normalized for cellular metabolic activity, as determined by bioconversion of 3-(4,5-dimethylthiazol-2-yl)-5-(3-carboxymethoxyphenyl)-2-(4-sulfophenyl)-2H-tetrazolium (MTS).

Compound: tetradecyl aminobutyroylvalylaminobutyric urea trifluoroacetate [TAUT]
- production of TNF-α (in words) (TNF-α): inhibits
- TNF-α Production, Activity compared to control (TNF-α; compared to PMA, human keratinocytes, PMA 10 ng/ml, 6 hours): −100%
- production of hyaluronic acid (in words) (hyaluronic acid): increases
- Hyaluronic Acid Production, Activity compared to control (hyaluronic acid): +64%
- production of collagen (in words) (procollagen peptide): increases
- Collagen Production, Activity compared to control (procollagen peptide): +18%

Compound: tripeptide-1
- production of hyaluronic acid (in words) (hyaluronic acid): increases
- Hyaluronic Acid Production, Activity compared to control (hyaluronic acid): +93%
- production of collagen (in words) (procollagen peptide): increases
- Collagen Production, Activity compared to control (procollagen peptide): +20%

Compound: Cc1cc(=O)c2c(O)cc(O)cc2o1 [dihydroxymethyl chromone]
- Fibronectin Secretion, Activity compared to control (fibronectin): +28%
- Collagen Production, Activity compared to control (procollagen peptide): +20%
